Assay results: patent US20260274895A1, “DE NOVO DESIGNED MEMBRANE-TRAVERSING AND ORALLY BIOAVAILABLE MACROCYCLES” (UNIVERSITY OF WASHINGTON, priority 2022, published 2026)
Where a SMILES comes first, the peptide text is derived from it. [ ]: non-standard residue; d: D form. NMeF = CN[C@@H](Cc1ccccc1)C(=O)O; dNMeF = CN[C@H](Cc1ccccc1)C(=O)O; NMeL = CN[C@@H](CC(C)C)C(=O)O; dNMeL = CN[C@H](CC(C)C)C(=O)O; dNMeV = CN[C@@H](C(=O)O)C(C)C; NMeV = CN[C@H](C(=O)O)C(C)C; NMeA = CN[C@@H](C)C(=O)O; dNMeA = CN[C@H](C)C(=O)O; Aib = CC(C)(N)C(=O)O

Details: not given

| Compound | membrane permeability in PAMPA (in words) |
| --- | --- |
| CC(C)C[C@@H]1NC(=O)[C@@H](CC(C)C)NC(=O)[C@H]2CCCN2C(=O)[C@H](CC(C)C)NC(=O)[C@@H](CC(C)C)NC(=O)[C@H](CC(C)C)NC(=O)[C@@H]2CCCN2C(=O)[C@@H](C)NC1=O [Design D8.1, lLplLaPL] (cyclo(L[dA]PL[dL]L[dP][dL])) | most permeable 8 residue design in PAMPA |
| CC(C)C[C@@H]1NC(=O)[C@H]2CCCN2C(=O)[C@H](CC(C)C)N(C)C(=O)[C@@H](C(C)C)NC(=O)[C@H](CC(C)C)NC(=O)[C@H]2CCCN2C(=O)[C@H](CC(C)C)N(C)C(=O)[C@@H](C(C)C)NC1=O [Design D8.21, v*LpLv*LpL] (cyclo(L[dV][NMeL][dP]L[dV][NMeL][dP])) | significant permeability |

Same assay, conditions: PAMPA

| Compound | PAMPA_Papp_Avg (apparent permeability) [cm/s] |
| --- | --- |
| CC(C)[C@@H]1C(=O)N[C@@H](Cc2ccccc2)C(=O)N2CCC[C@H]2C(=O)N(C)[C@H](Cc2ccccc2)C(=O)N[C@H](C)C(=O)N2CCC[C@H]2C(=O)N1C (single isomer, unassigned) [Design D6.8.p2, *faP*vFP] | 1.77e-06 |
| CC(C)C[C@H]1C(=O)N2CCC[C@@H]2C(=O)N[C@@H](Cc2ccccc2)C(=O)N2CCC[C@H]2C(=O)N[C@H](C(C)C)C(=O)N[C@H](Cc2ccccc2)C(=O)N1C (single isomer, unassigned) [Design D6.9.p2, vf*LpFP] | 6.77e-06 |
| CC(C)C[C@@H]1C(=O)N(C)[C@@H](CC(C)C)C(=O)N2CCC[C@@H]2C(=O)N[C@H](CC(C)C)C(=O)N[C@H](C)C(=O)N2CCC[C@@H]2C(=O)N2CCC[C@H]2C(=O)N[C@@H](C)C(=O)N[C@H](Cc2ccccc2)C(=O)N[C@H](CC(C)C)C(=O)N[C@@H](C(C)C)C(=O)N1C (single isomer, unassigned) [Design D11.9.p1, V*l*LplapPAfl] | 8.79e-07 |
| CC(C)C[C@@H]1C(=O)N(C)[C@@H](CC(C)C)C(=O)N2CCC[C@@H]2C(=O)N[C@H](CC(C)C)C(=O)N[C@H](C)C(=O)N2CCC[C@@H]2C(=O)N2CCC[C@H]2C(=O)N[C@@H](C)C(=O)N[C@H](Cc2ccccc2)C(=O)N[C@H](CC(C)C)C(=O)N[C@@H](C(C)C)C(=O)N1C (single isomer, unassigned) [Design D11.9.p2, V*l*LplapPAfl] | 2.09e-06 |
| CC[C@@H](C)[C@H]1NC(=O)[C@@H](Cc2ccccc2)NC(=O)[C@@H]2CCCN2C(=O)[C@@H]([C@H](C)CC)NC(=O)[C@@H](Cc2ccccc2)NC(=O)[C@@H]2CCCN2C1=O [Design D6.1, iPfiPf] (cyclo(P[dF][dI]P[dF][dI])) | 3.34e-06 |
| CC[C@@H](C)[C@H]1NC(=O)[C@@H](Cc2ccccc2)N(C)C(=O)[C@@H]2CCCN2C(=O)[C@@H]([C@H](C)CC)NC(=O)[C@@H](Cc2ccccc2)N(C)C(=O)[C@@H]2CCCN2C1=O [Design D6.2, iP*fiP*f] (cyclo(P[dNMeF][dI]P[dNMeF][dI])) | 1.22e-05 |
| CC(C)C[C@H]1NC(=O)[C@@H]2CCCN2C(=O)[C@@H]2CCCN2C(=O)[C@@H](C)NC(=O)[C@@H](Cc2ccccc2)NC(=O)[C@H]2CCCN2C1=O [Design D6.3, pfaPpl] (cyclo(PP[dL][dP][dF][dA])) | 1.99e-06 |
| CC(C)C[C@H]1NC(=O)[C@@H]2CCCN2C(=O)[C@@H]2CCCN2C(=O)[C@@H](C)NC(=O)[C@@H](Cc2ccccc2)N(C)C(=O)[C@H]2CCCN2C1=O [Design D6.4, p*faPPl] (cyclo(PP[dL][dP][dNMeF][dA])) | 1.39e-05 |
| CC(C)[C@@H]1NC(=O)[C@@H]2CCCN2C(=O)[C@@H]2CCCN2C(=O)[C@@H](Cc2ccccc2)NC(=O)[C@@H]2CCCN2C(=O)[C@@H](Cc2ccccc2)NC1=O [Design D6.5, PPVfPf] (cyclo(PPV[dF]P[dF])) | 2.41e-06 |
| CC(C)[C@H]1C(=O)N[C@H](Cc2ccccc2)C(=O)N2CCC[C@H]2C(=O)N[C@H](Cc2ccccc2)C(=O)N2CCC[C@H]2C(=O)N2CCC[C@H]2C(=O)N1C [Design D6.6, PP*VfPf] (cyclo([NMeV][dF]P[dF]PP)) | 3.64e-06 |
| CC(C)[C@H]1NC(=O)[C@@H]2CCCN2C(=O)[C@@H](C)NC(=O)[C@@H](Cc2ccccc2)NC(=O)[C@@H]2CCCN2C(=O)[C@H](Cc2ccccc2)NC1=O [Design D6.7, faPvFP] (cyclo(FP[dF][dA]P[dV])) | 4.24e-07 |
| CC(C)C[C@H]1C(=O)N2CCC[C@@H]2C(=O)N[C@@H](Cc2ccccc2)C(=O)N2CCC[C@H]2C(=O)N(C)[C@H](C(C)C)C(=O)N[C@H](Cc2ccccc2)C(=O)N1C [Design D6.10, *vf*LpFP] (cyclo(FP[dNMeV][dF][NMeL][dP])) | 1.16e-05 |
| CC[C@H](C)[C@@H]1NC(=O)[C@H]2CCCN2C(=O)[C@@H]2CCCN2C(=O)[C@H](CC(C)C)NC(=O)[C@@H](C(C)C)NC(=O)[C@@H](CC(C)C)N(C)C(=O)[C@@H]2CCCN2C1=O [Design D7.1, P*lvLPpI] (cyclo(IP[dNMeL][dV]LP[dP])) | 2.93e-06 |
| CC(C)C[C@@H]1NC(=O)[C@@H](CC(C)C)NC(=O)[C@H]2CCCN2C(=O)[C@@H]2CCCN2C(=O)[C@@H](CC(C)C)NC(=O)[C@@H](CC(C)C)N(C)C(=O)[C@@H]2CCCN2C1=O [Design D7.5, LP*llPpl] (cyclo(LP[dNMeL][dL]P[dP][dL])) | 6.64e-06 |
| CC(C)C[C@@H]1NC(=O)[C@@H]2CCCN2C(=O)[C@H]2CCCN2C(=O)[C@H](CC(C)C)NC(=O)[C@H](C)N(C)C(=O)[C@H]2CCCN2C(=O)[C@@H](CC(C)C)NC1=O [Design D7.6, lp*ALpPL] (cyclo(L[dL][dP][NMeA]L[dP]P)) | 3.62e-06 |
| CC[C@H](C)[C@@H]1NC(=O)[C@H](Cc2ccccc2)N(C)C(=O)[C@H]2CCCN2C(=O)[C@H]([C@@H](C)CC)NC(=O)[C@H](C(C)C)NC(=O)[C@@H](C)NC(=O)[C@H]2CCCN2C1=O [Design D7.9, VIp*FIpa] (cyclo(I[dP][NMeF]I[dP][dA]V)) | 7.09e-06 |
| CC(C)C[C@@H]1NC(=O)[C@@H](CC(C)C)NC(=O)[C@H]2CCCN2C(=O)[C@H](CC(C)C)NC(=O)[C@@H](CC(C)C)NC(=O)[C@H](CC(C)C)NC(=O)[C@@H]2CCCN2C(=O)[C@@H](C)NC1=O [Design D8.1, lLplLaPL] (cyclo(L[dA]PL[dL]L[dP][dL])) | 6.94e-06 |
| CC[C@@H](C)[C@H]1NC(=O)[C@@H](CC(C)C)NC(=O)C(C)(C)NC(=O)[C@@H]2CCCN2C(=O)[C@@H]([C@H](C)CC)NC(=O)[C@@H](CC(C)C)NC(=O)C(C)(C)NC(=O)[C@@H]2CCCN2C1=O [Design D8.2, PBliPBLi] (cyclo([Aib][dL][dI]P[Aib][dL][dI]P)) | 7.49e-06 |
| CC(C)C[C@@H]1NC(=O)[C@H]2CCCN2C(=O)[C@@H]2CCCN2C(=O)[C@H](CC(C)C)NC(=O)[C@@H](CC(C)C)NC(=O)[C@@H](C)N(C)C(=O)[C@@H](C)N(C)C(=O)[C@@H](C(C)C)NC1=O [Design D8.6, LPpLv*a*al] (cyclo(LP[dP]L[dV][dNMeA][dNMeA][dL])) | 3.35e-06 |
| CC[C@@H](C)[C@H]1NC(=O)[C@@H](CC(C)C)N(C)C(=O)[C@@H]2CCCN2C(=O)[C@@H]([C@H](C)CC)NC(=O)[C@@H](CC(C)C)NC(=O)[C@@H](CC(C)C)N(C)C(=O)[C@@H]2CCCN2C(=O)[C@@H](C(C)C)NC1=O [Design D8.8, P*lliP*liv] (cyclo(P[dNMeL][dI][dV]P[dNMeL][dL][dI])) | 5.9e-06 |
| CC(C)C[C@@H]1C(=O)N[C@H](CC(C)C)C(=O)N2CCC[C@@H]2C(=O)N2CCC[C@@H]2C(=O)N(C)[C@@H](C)C(=O)N[C@H](Cc2ccccc2)C(=O)N[C@@H](C)C(=O)N(C)[C@@H](CC(C)C)C(=O)N1C [Design D8.10, pp*AfA*L*ll] (cyclo(A[NMeL][dNMeL][dL][dP][dP][NMeA][dF])) | 1.23e-06 |
| CC[C@H](C)[C@@H]1NC(=O)[C@@H](C(C)C)NC(=O)[C@H](CC(C)C)N(C)C(=O)[C@H]2CCCN2C(=O)[C@H]2CCCN2C(=O)[C@H](C(C)C)NC(=O)[C@@H](CC(C)C)NC(=O)[C@H]2CCCN2C1=O [Design D8.16, plVpp*LvI] (cyclo(I[dP][dL]V[dP][dP][NMeL][dV])) | 2.16e-06 |
| CC[C@@H](C)[C@H]1NC(=O)[C@@H]2CCCN2C(=O)[C@@H](CC(C)C)N(C)C(=O)[C@@H](C(C)C)NC(=O)[C@@H]2CCCN2C(=O)[C@@H](CC(C)C)N(C)C(=O)[C@H](C)N(C)C(=O)[C@@H](C)NC1=O [Design D8.18, ia*A*lPv*lP] (cyclo([NMeA][dNMeL]P[dV][dNMeL]P[dI][dA])) | 1.04e-06 |
| CC(C)C[C@@H]1C(=O)N(C)[C@H](Cc2ccccc2)C(=O)N(C)[C@@H](CC(C)C)C(=O)N[C@H](C(C)C)C(=O)N[C@H](C)C(=O)N2CCC[C@@H]2C(=O)N2CCC[C@H]2C(=O)N[C@H](C)C(=O)N1C [Design D8.20, Pa*l*f*Lvap] (cyclo([dA][dNMeL][dNMeF][NMeL][dV][dA][dP]P)) | 1.08e-06 |
| CC(C)C[C@@H]1C(=O)N[C@@H](C(C)C)C(=O)N[C@@H](C)C(=O)N2CCC[C@H]2C(=O)N2CCC[C@@H]2C(=O)N[C@@H](C(C)C)C(=O)N[C@@H](C)C(=O)N(C)[C@@H](CC(C)C)C(=O)N1C [Design D8.22, APpVA*L*lV] (cyclo(A[NMeL][dNMeL]VAP[dP]V)) | 2.15e-07 |
| CC(C)C[C@@H]1C(=O)N(C)[C@H](CC(C)C)C(=O)N[C@H](CC(C)C)C(=O)N[C@@H](C(C)C)C(=O)N2CCC[C@@H]2C(=O)N2CCC[C@H]2C(=O)N[C@H](CC(C)C)C(=O)N[C@@H](C(C)C)C(=O)N1C [Design D8.23, lV*l*llVpP] (cyclo([dL]V[dNMeL][dNMeL][dL]V[dP]P)) | 1.28e-06 |
| CC(C)C[C@@H]1C(=O)N[C@H](C)C(=O)N(C)[C@H](CC(C)C)C(=O)N2CCC[C@@H]2C(=O)N[C@H](CC(C)C)C(=O)N[C@@H](C)C(=O)N[C@H](CC(C)C)C(=O)N2CCC[C@@H]2C(=O)N1C [Design D8.25, lp*la*lplA] (cyclo(A[dL][dP][dNMeL][dA][dNMeL][dP][dL])) | 8.24e-07 |
| CC(C)C[C@@H]1NC(=O)[C@H](CC(C)C)N(C)C(=O)[C@H]2CCCN2C(=O)[C@@H](C)NC(=O)[C@@H](C)N(C)C(=O)[C@@H](C(C)C)NC(=O)[C@@H](CC(C)C)N(C)C(=O)[C@@H]2CCCN2C1=O [Design D8.30, ap*LLP*lv*a] (cyclo(LP[dNMeL][dV][dNMeA][dA][dP][NMeL])) | 4.32e-06 |
